As a reminder, the IC50 is the concentration that gives 50% inhibition. Lower therefore signals greater potency.

Results on three molecules are retold here after US20220056018A1, “SREBP INHIBITORS COMPRISING A THIOPHENE CENTRAL RING” (Capulus Therapeutics, LLC, priority 2019, published 2022).

A short description of data set [1]: Stability in mouse liver microsomes. It is filed as in vitro ADME. The method in brief: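 Mouse liver microsomes, run by the same procedure as for human microsomes: 100 μM working solution pre-incubated with microsomes in 100 mM potassium phosphate buffer for 10 min at 37° C, then incubated 60 min at 37° C with NADPH cofactor, plus a no-cofactor control. Remaining compound quantified by LC-MS/MS.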
For orientation: Liver microsomes are a subcellular fraction often used to study metabolism.

In the next data set the test system is JIMT1. The experiment in a line: Cancer cell growth inhibition. The format is cell-based. Conditions: Homo sapiens, JIMT-1; JIMT1 (breast), 72 hr treatment. The method in brief:
(§1)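 Cells were exposed to compound for 72 hr in growth media, with six 10-fold dilutions prepared in DMSO as stocks from 10 mM to 0.1 uM and 0.1% final DMSO. Single data points per concentration. Growth was measured by sulforhodamine B protein staining.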

A further data set concerns PBMC. The experiment in a line: Cancer cell growth inhibition. Conditions: PBMC (hematological), 72 hr treatment. It is filed as cell-based. The procedure, abridged: as §1
The subject of another data set is SKMEL5. The experiment in a line: Cancer cell growth inhibition. The format is cell-based. To be noted: Homo sapiens, SK-MEL-5; SKMEL5 (skin), 72 hr treatment. The method in brief: as §1
Another data set concerns RDES. The experiment in a line: Cancer cell growth inhibition. The format is cell-based. Conditions: RD-ES; RDES (bone), 72 hr treatment. The method in brief: as §1
A further data set concerns DLD1. The experiment in a line: Cancer cell growth inhibition. It is filed as cell-based. To be noted: Homo sapiens, DLD-1; DLD1 (colon), 72 hr treatment. The method in brief: as §1
The next data set relates to UO31. The experiment in a line: Cancer cell growth inhibition. It is filed as cell-based. To be noted: Homo sapiens, UO-31; UO31 (kidney), 72 hr treatment. The procedure, abridged:
as §1

In a further data set the test system is HEK293. The experiment in a line: Cancer cell growth inhibition. To be noted: Homo sapiens; HEK293 (kidney), 72 hr treatment. It is filed as cell-based. The procedure, abridged:
as §1

In a further data set the test system is A431. The experiment in a line: Cancer cell growth inhibition. Conditions: Homo sapiens, A-431; A431 (skin), 72 hr treatment. The format is cell-based. The procedure, abridged: as §1
A further data set concerns PANC1005. Description: Cancer cell growth inhibition. The format is cell-based. Conditions: Homo sapiens; PANC1005 (pancreas), 72 hr treatment. The procedure, abridged:
as §1

In another data set the test system is A2780. Description: Cancer cell growth inhibition. Conditions: Homo sapiens; A2780 (ovary), 72 hr treatment. The format is cell-based. The method in brief:
as §1

Data set [2] is described as follows: Stability in human liver microsomes. The format is in vitro ADME. To be noted: 37° C., NADPH. The procedure, abridged: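 Compound from a 100 μM working solution was preincubated 10 min at 37 °C with human liver microsomes (added at 3.33 mg/mL) in 100 mM potassium phosphate. Incubation then ran 60 min at 37 °C with NADPH (2.85 mM cofactor solution), alongside a no-cofactor 60-min control and a 0-min sample. Parent compound was quantified by LC-MS/MS after acetonitrile quench for half-life.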

As for `CC(C)(CO)c1cc(-c2csc(-c3ccc(NS(C)(=O)=O)cc3Cl)c2)ccn1` [Compound I-8909, N-(3-chloro-4-(4-(2-(1-hydroxy-2-methylpropan-2-yl)pyridin-4-yl)thiophen-2-yl)phenyl)methanesulfonamide], the “percent parent remaining after 60 min in liver microsomes” value (from here on “percent parent remaining after 60 min”) in [1] is “+++ (>60.1 = +++)”. Moreover, the IC50 is less than 10 µM with JIMT1; more than 10 µM in the data set on PBMC; less than 10 µM with SKMEL5; more than 10 µM with RDES; less than 10 µM in the data set on DLD1; more than 10 µM with UO31. Moreover, the 50% inhibitory concentration (IC50) is less than 10 µM in the data set on HEK293, more than 10 µM in the data set with A431, less than 10 µM in the data set with PANC1005 and less than 10 µM with A2780. For the same molecule, in [2], the “percent of compound remaining after 60 min in human liver microsomes” value (from here on “percent of compound remaining”) is listed as “++ (30.1-60 = ++)”.
With `CC(C)(O)Cc1cc(-c2csc(-c3ccc(NS(C)(=O)=O)cc3Cl)c2)ccn1` [Compound I-9004, N-(3-chloro-4-(4-(2-(2-hydroxy-2-methylpropyl)pyridin-4-yl)thiophen-2-yl)phenyl)methanesulfonamide], the “percent parent remaining after 60 min” value in [1] was “+++ (>60.1 = +++)”. The concentration for half-maximal inhibition (IC50) was less than 10 µM in the data set on JIMT1; more than 10 µM with PBMC; less than 10 µM in the data set on SKMEL5; more than 10 µM with RDES; less than 10 µM with DLD1; more than 10 µM with UO31. The IC50 with HEK293 was less than 10 µM; with A431, more than 10 µM; in the data set on PANC1005, less than 10 µM; with A2780 it was less than 10 µM. Besides, in data set [2], the “percent of compound remaining” value is listed as “+++ (>60.1 = +++)”.
On to `CS(=O)(=O)Nc1ccc(-c2cc(-c3ccnc4c3OCCO4)cs2)c(Cl)c1` [Compound I-9017, N-(3-chloro-4-(4-(2,3-dihydro-[1,4]dioxino[2,3-b]pyridin-8-yl)thiophen-2-yl)phenyl)methanesulfonamide], for which the “percent parent remaining after 60 min” value in [1] is reported as “+++ (>60.1 = +++)”. In addition, the IC50 in the data set with JIMT1 is less than 10 µM; in the data set on PBMC, more than 10 µM; in the data set on SKMEL5 it was less than 10 µM; in the data set with RDES it was less than 10 µM; with DLD1, less than 10 µM; with UO31, less than 10 µM. For the same molecule, the IC50 in the data set with HEK293 is less than 10 µM; in the data set with A431, more than 10 µM; in the data set on PANC1005 it was more than 10 µM; in the data set on A2780, less than 10 µM. Also, in data set [2], the “percent of compound remaining” value was “+++ (>60.1 = +++)”.
